Patent publication EP3301096A1, “BIS-INDOLE DERIVATIVES FOR USE IN THE TREATMENT OF BACTERIAL INFECTIONS” (Heinrich Heine Universität Düsseldorf, priority 2016, dated 2018)

Tests used:
[1] = test system: methicillin-resistant Staphylococcus aureus; assay: MIC quantified via the BacTiter-Glo assay; format: cell-based; conditions: methicillin-resistant strain; 24 h
Experimental: (§1) The MICs of compounds according to formulas (2), (3), (4), (7), (11), (12) and (18) were additionally quantified via the BacTiter-Glo™ assay (Promega, Madison, WI, USA). Briefly, after an incubation time of 24 h, each well was resuspended by pipetting, and 50 µL aliquots were transferred into an opaque-walled multiwell plate. Additionally, control wells containing medium without cells to determine background luminescence were prepared. 50 µL BacTiter-Glo™ reagent were added to each well. Contents were mixed and incubated for five minutes at room temperature. Luminescence was measured using a microplate reader. Growth was calculated relative to the background luminescence (0% growth) and a compound-free DMSO control (100% growth).

[2] = test system: methicillin-sensitive Staphylococcus aureus; assay: MIC quantified via the BacTiter-Glo assay; format: cell-based; conditions: methicillin-sensitive strain; 24 h
Experimental: as §1

[3] = test system: MRSA ATCC 700699; assay: MIC by broth microdilution method (CLSI); conditions: for MIC: Staphylococcus aureus, 24 h
Experimental: (§4) The compounds were tested for their antibacterial activities against the pathogenic nosocomial strains of Staphylococcus aureus, Enterococcus faecalis Enterococcus faecium, Acinetobacter baumannii. The minimal inhibitory concentration (MIC) was determined by the broth microdilution method according to the recommendations of the Clinical and Laboratory Standards Institute (CLSI) (CLSI M7-A9, 2012). For preparation of the inoculum the growth method was used. Bacterial cells were grown aerobically in Muller Hinton (MH) medium at 37°C and 180 rpm. A preculture was grown until log phase (OD600 nm ∼ 0.5) and then seeded at 5 x 10^4 bacteria/well in a total volume of 100 µL in 96 well round bottom microtiter plates and incubated with serially diluted test substances at a concentration range of 100-0.78 µM. The compounds were screened in two-fold serial dilution. Microplates were incubated aerobically at 37°C for 24 h. MICs were determined by identifying the minimum concentration of the compounds that led to complete inhibition of visual growth of the bacteria.

[4] = test system: human fetal lung fibroblast cell line MRC-5; assay: Cytotoxicity, resazurin assay; format: cell-based; conditions: MRC-5 cells, 48 h
Experimental: (§2) The cytotoxicity of the compounds according to formulas (2), (3) and (4) and according to formulas (7), (11), (12) and (18) was determined in vitro using the human monocyte cell line THP-1 (Deutsche Sammlung von Mikroorganismen und Zellkulturen GmbH) and the human fetal lung fibroblast cell line MRC-5 (American Type Culture Collection).
(§3) THP-1 cells were cultured in RPMI 1640 medium containing 10% (v/v) fetal bovine serum (FBS), while MRC-5 cells were incubated in Dulbecco's Modified Eagles Medium (DMEM) containing 10% (v/v) FBS both at 37°C in a humidified atmosphere of 5% CO2. […] Cells treated with DMSO in a final concentration of 1% (v/v) served as DMSO toxicity controls. After an incubation time of 48 h, 10 µL resazurin solution (100 µg/mL) were added per well and incubated for further 3 h at 37°C in a humidified atmosphere of 5% CO2. Fluorescence was quantified using a microplate reader (excitation 540 nm, emission 590 nm). Growth was calculated relative to non-inoculated (i.e. cell-free) (0% growth) and untreated (100% growth) controls in triplicate experiments, respectively. For determination of the therapeutic index of the tested substances, the selectivity index (SI) was determined by the quotient of cytotoxic concentration and MIC. Compounds with SI ≥ 10 were characterized in further experiments.

[5] = test system: human monocyte cell line THP-1; assay: Cytotoxicity, resazurin assay; format: cell-based; conditions: THP-1 cells, 48 h
Experimental: as §2, §3

[6] = test system: methicillin-resistant S. aureus (MRSA) strain ATCC 700699; assay: Frequency of spontaneous resistant mutants on compound-containing agar; format: cell-based, Staphylococcus aureus; conditions: agar with 3- and 5-fold MIC, 72 h, 37°C
[7] = test system: VR E. faecium ATCC 700221; assay: MIC by broth microdilution method (CLSI); conditions: Enterococcus faecium, ATCC700221, 24 h
Experimental: as §4

[8] = test system: E. faecium ATCC 35667; assay: MIC by broth microdilution method (CLSI); conditions: Enterococcus faecium, ATCC35667, 24 h
Experimental: as §4

[9] = test system: E. faecalis ATCC 29212; assay: MIC by broth microdilution method (CLSI); conditions: Enterococcus faecalis, ATCC29212, 24 h
Experimental: as §4

[10] = test system: M. tuberculosis H37Rv; assay: MIC determination, resazurin microplate assay; format: cell-based; conditions: Mycobacterium tuberculosis, 120 h, five days, range 100-0.78 µM
[11] = test system: Staphylococcus aureus MRSA strain ATCC 700699; assay: Time-kill curves in vitro (killing kinetics); format: cell-based; conditions: for bacteria amount: after 6 h at five-fold MIC, inoculum 10^6 CFU/mL; for killing effect: five-fold MIC
[12] = test system: E. faecalis ATCC 51299; assay: MIC by broth microdilution method (CLSI); conditions: Enterococcus faecalis, ATCC51299, 24 h
Experimental: as §4

[13] = test system: S. aureus ATCC 25923; assay: MIC by broth microdilution method (CLSI); conditions: Staphylococcus aureus, ATCC25923, 24 h
Experimental: as §4

[14] = test system: Methicillin resistant S. aureus (MRSA; ATCC 700699); assay: Resistance development during time-kill kinetics; format: cell-based, Staphylococcus aureus; conditions: after 6 and 24 h of incubation, plated on agar with 5x MIC
Experimental: Additionally, the resistance rate of the cultures was determined after 6 and 24 h of incubation. For this, 20 µL of the cultures were plated on 1 mL MH agar containing the five-fold MIC of the compounds (for the compound according to formula (2) and (4): 2 µM, for the compound according to formula (3): 8 µM). After an incubation time of 24 h at 37°C, the colonies were counted. The resistance rate was determined as quotient of the number of resistant colonies on compound containing agar and the total amount of viable bacteria at the corresponding time points.
Two independent cultures C1 and C2 were tested for each attempt. Compounds were tested at 5x MIC resulting in 0.02-0.08% DMSO final concentration. In an independent experiment, medium was replaced and compounds were freshly added after 6 h, denoted "freshly added" in the Figure. 20 µL of different dilution of the cultures after either 6 or 24 h of incubation were plated out on MH agar containing either no antibiotics, which is denoted (*) or the compounds of formulas (2) and (3) at 5x MIC, respectively.

[15] = test system: resistant MRSA mutants; assay: Level of resistance of isolated resistant mutants (dose-response); format: cell-based, Staphylococcus aureus

For `Clc1ccc2[nH]cc(-c3cnc(-c4c[nH]c5ccc(Cl)cc45)cn3)c2c1` [formula (2), 2,5-bis(5-chloro-1H-indole-3-yl)pyrazine], the “inhibition of Staphylococcus aureus (BacTiter-Glo)” value (from here on “inhibition of Staphylococcus aureus”) [1] was “effectively inhibited”, the “inhibition of Staphylococcus aureus” value [2] was “effectively inhibited” and the MIC [3] was 0.39 µM. The “concentrations at which a decreased inhibitory effect could be observed” value ([3]; paradoxical effect, assumed aggregation and precipitation) was no less than 3.125 µM, the “cytotoxic (inhibitory) concentration” value [4] was 12.5 µM and the “cytotoxic (inhibitory) concentration” value [5] was 12.5 µM. For the same compound, the “frequency of spontaneous resistant mutants” value [6] was 5×10^-7, the MIC [7] was greater than 100 µM and the MIC [8] was greater than 100 µM. For the same compound, the MIC [9] was greater than 100 µM, the MIC [10] was greater than 100 µM and the bacteria amount [11] was 10^4 CFU/mL. For the same compound, the “viability of the culture” value ([11]; compound freshly added to washed cells after 6 h, initial further decrease) was 10^2 CFU/mL, the killing effect [11] was “strong bactericidal killing effect” and the MIC [12] was greater than 100 µM. The MIC [13] was greater than 100 µM and the “level of resistance in treated cultures” value [14] was “no significant level of resistance was detectable”.
`Clc1ccc2[nH]cc(-c3cnc(-c4c[nH]c5ccc(Cl)cc45)nc3)c2c1` [formula (4), 3,3'-(pyrimidine-2,5-diyl)bis(5-chloro-1H-indole)] was tested, and the “inhibition of Staphylococcus aureus” value [1] was “effectively inhibited”, the “inhibition of Staphylococcus aureus” value [2] was “effectively inhibited” and the MIC [3] was 0.39 µM. For the same compound, the “cytotoxic (inhibitory) concentration” value [4] was greater than 12.5 µM, the “cytotoxic (inhibitory) concentration” value [5] was greater than 12.5 µM and the “frequency of spontaneous resistant mutants” value [6] was 5×10^-5. The MIC [7] was 1.56 µM, the MIC [8] was 1.56 µM and the MIC [9] was 3.12 µM. The MIC [10] was 50 µM, the bacteria amount [11] was < 10^1 CFU/mL and the “amount of surviving bacteria” value ([11]; after 24 h at five-fold MIC, limit of detection 10^1) was < 10^1 CFU/mL. The killing effect [11] was “strong bactericidal killing effect”, the MIC [12] was 12.5 µM and the MIC [13] was 6.25 µM. The “MIC for the mutants relative to the parent MRSA strain” value ([15]; mutants 9-RM, 1-RM, 9-RM-5x versus MRSA WT) was 8 fold and the “resistance of clones resistant against formula (2) towards the tested compound” value ([15]; two tested clones (1-RM)) was “showed cross-resistance”.
